Data set [1] has as its system Streptococcus pneumoniae. As to the kind of experiment: Antibacterial activity against erythromycin-resistant Streptococcus pneumoniae SPN19-13 assessed as inhibition of visible bacterial growth incubated for 18 hrs by broth microdilution method. The format is functional.
Data set [2] has as its system Streptococcus agalactiae. As to the kind of experiment: Antibacterial activity against erythromycin-resistant Streptococcus agalactiae 19-9 assessed as inhibition of visible bacterial growth incubated for 18 hrs by broth microdilution method. The format is functional. In general terms: In broth dilution the organism is exposed to a series of concentrations in liquid medium.

Data set [3] has as its system Staphylococcus epidermidis. In words: Antibacterial activity against erythromycin-resistant Staphylococcus epidermidis 19-11 assessed as inhibition of visible bacterial growth incubated for 18 hrs by broth microdilution method. The format is functional.
In data set [4] the test system is Streptococcus pneumoniae. In words: Antibacterial activity against erythromycin-resistant Streptococcus pneumoniae SPN19-8 assessed as inhibition of visible bacterial growth incubated for 18 hrs by broth microdilution method. The format is functional.
Data set [5] has as its system Moraxella catarrhalis. As to the kind of experiment: Antibacterial activity against Moraxella catarrhalis BCA 19-5 assessed as inhibition of bacterial growth incubated for 24 hrs by CLSI based broth microdilution method. The format is functional. To be noted: Moraxella catarrhalis, BCA 19-5, 24 h, read-out: MIC.
The subject of data set [6] is Moraxella catarrhalis. In words: Antibacterial activity against Moraxella catarrhalis BCA 19-31 assessed as inhibition of bacterial growth incubated for 24 hrs by CLSI based broth microdilution method. The format is functional. To be noted: BCA 19-31, 24 h.
Data set [7] concerns Haemophilus influenzae. As to the kind of experiment: Antibacterial activity against Haemophilus influenzae HIN 19-18 assessed as inhibition of bacterial growth incubated for 20 to 24 hrs by CLSI based broth microdilution method. The format is functional. To be noted: HIN 19-18, time 20-24 hrs.
The subject of data set [8] is Streptococcus agalactiae. As to the kind of experiment: Antibacterial activity against erythromycin-resistant Streptococcus agalactiae 19-8 assessed as inhibition of visible bacterial growth incubated for 18 hrs by broth microdilution method. The format is functional.
Data set [9] concerns Staphylococcus epidermidis. In words: Antibacterial activity against erythromycin-resistant Staphylococcus epidermidis 19-6 assessed as inhibition of visible bacterial growth incubated for 18 hrs by broth microdilution method. The format is functional.
In data set [10] the test system is Moraxella catarrhalis. As to the kind of experiment: Antibacterial activity against Moraxella catarrhalis BCA 19-6 assessed as inhibition of bacterial growth incubated for 24 hrs by CLSI based broth microdilution method. The format is functional. To be noted: Moraxella catarrhalis, BCA 19-6, 24 h, read-out: MIC.
In data set [11] the test system is Staphylococcus epidermidis. As to the kind of experiment: Antibacterial activity against erythromycin-resistant Staphylococcus epidermidis 19-4 assessed as inhibition of visible bacterial growth incubated for 18 hrs by broth microdilution method. The format is functional.
Data set [12] concerns Haemophilus influenzae. In words: Antibacterial activity against Haemophilus influenzae HIN 19-15 assessed as inhibition of bacterial growth incubated for 20 to 24 hrs by CLSI based broth microdilution method. The format is functional. To be noted: time 20-24 hrs.
Data set [13] has as its system Streptococcus pneumoniae. As to the kind of experiment: Antibacterial activity against erythromycin-resistant Streptococcus pneumoniae SPN19-14 assessed as inhibition of visible bacterial growth incubated for 18 hrs by broth microdilution method. The format is functional.
Data set [14] concerns Staphylococcus epidermidis. As to the kind of experiment: Antibacterial activity against erythromycin-resistant Staphylococcus epidermidis 19-5 assessed as inhibition of visible bacterial growth incubated for 18 hrs by broth microdilution method. The format is functional.
Data set [15] relates to Staphylococcus epidermidis. As to the kind of experiment: Antibacterial activity against erythromycin-resistant Staphylococcus epidermidis 19-9 assessed as inhibition of visible bacterial growth incubated for 18 hrs by broth microdilution method. The format is functional.
The test system of data set [16] is Staphylococcus epidermidis. In words: Antibacterial activity against erythromycin-resistant Staphylococcus epidermidis 19-8 assessed as inhibition of visible bacterial growth incubated for 18 hrs by broth microdilution method. The format is functional.
Another data set concerns Streptococcus pyogenes. In words: Antibacterial activity against erythromycin-resistant Streptococcus pyogenes ATCC 19615 assessed as inhibition of visible bacterial growth incubated for 18 hrs by broth microdilution method. The format is functional.
A short description of data set [17]: Cytotoxicity against mouse AML12 cells assessed as reduction in cell viability incubated for 48 hrs by MTT assay. The format is toxicity, cell-based.

≈ marks a conversion by molar mass, not a printed value.

Consider `CC[C@H]1OC(=O)[C@H](C)C(=O)[C@H](C)[C@@H](O[C@@H]2O[C@H](C)C[C@H](N(C)C)[C@H]2O)[C@](C)(OC)C[C@@H](C)C(=O)[C@H](C)[C@H]2N(CCCOC(=O)Nc3ccc(C)cc3)C(=O)O[C@]12C`, for which the MIC with Streptococcus pneumoniae [1] was 0.25 µg/mL (≈ 0.311 µM); in the data set with Streptococcus agalactiae [2], 1 µg/mL (≈ 1.24 µM); in [3], 0.125 µg/mL (≈ 0.155 µM); with Streptococcus pneumoniae [4], 0.5 µg/mL (≈ 0.622 µM); in the data set with Moraxella catarrhalis [5] it was 0.125 µg/mL (≈ 0.155 µM); in the data set with Moraxella catarrhalis [6], 1 µg/mL (≈ 1.24 µM). Also, the MIC was 32 µg/mL (≈ 39.8 µM) in the data set with Haemophilus influenzae [7]; below 0.03 µg/mL with Streptococcus agalactiae [8]; 0.125 µg/mL (≈ 0.155 µM) in data set [9]; 0.25 µg/mL (≈ 0.311 µM) in the data set with Moraxella catarrhalis [10]; 0.125 µg/mL (≈ 0.155 µM) in data set [11]; 32 µg/mL (≈ 39.8 µM) with Haemophilus influenzae [12]. Moreover, the MIC with Streptococcus pneumoniae [13] was 0.25 µg/mL (≈ 0.311 µM); in data set [14], 0.125 µg/mL (≈ 0.155 µM); in data set [15], 0.5 µg/mL (≈ 0.622 µM); in [16], below 0.03 µg/mL; with Streptococcus pyogenes it was below 0.03 µg/mL. In data set [17], the 50% cytotoxic concentration (CC50) at 48 h was determined as 20.8 µM.

Regarding `CC[C@H]1OC(=O)[C@H](C)C(=O)[C@H](C)[C@@H](O[C@@H]2O[C@H](C)C[C@H](N(C)C)[C@H]2O)[C@](C)(OC)C[C@@H](C)C(=O)[C@H](C)[C@H]2N(CCCOC(=O)Nc3cccc(C)c3)C(=O)O[C@]12C`, the MIC in the data set on Streptococcus pneumoniae [1] turned out to be 1 µg/mL (≈ 1.24 µM); in the data set on Streptococcus agalactiae [2], 0.5 µg/mL (≈ 0.622 µM); in data set [3], 0.5 µg/mL (≈ 0.622 µM); in the data set with Streptococcus pneumoniae [4], 1 µg/mL (≈ 1.24 µM); in the data set with Moraxella catarrhalis [5], 0.5 µg/mL (≈ 0.622 µM); in the data set with Moraxella catarrhalis [6], 1 µg/mL (≈ 1.24 µM). The MIC was 32 µg/mL (≈ 39.8 µM) in the data set on Haemophilus influenzae [7]; below 0.03 µg/mL with Streptococcus agalactiae [8]; 0.5 µg/mL (≈ 0.622 µM) in data set [9]; 0.5 µg/mL (≈ 0.622 µM) with Moraxella catarrhalis [10]; 2 µg/mL (≈ 2.49 µM) in [11]; 32 µg/mL (≈ 39.8 µM) in the data set with Haemophilus influenzae [12]. The MIC in the data set on Streptococcus pneumoniae [13] was 1 µg/mL (≈ 1.24 µM); in data set [14] it was 0.5 µg/mL (≈ 0.622 µM); in data set [15], 1 µg/mL (≈ 1.24 µM); in data set [16], 0.5 µg/mL (≈ 0.622 µM); with Streptococcus pyogenes, below 0.03 µg/mL. The 50% cytotoxic concentration (CC50) at 48 h in [17] amounted to 71.7 µM.

In the case of `CC[C@H]1OC(=O)[C@@](C)(F)C(=O)[C@H](C)[C@@H](O[C@@H]2O[C@H](C)C[C@H](N(C)C)[C@H]2O)[C@](C)(OC)C[C@@H](C)C(=O)[C@H](C)[C@H]2N(CCCOC(=O)Nc3cccc(C(F)(F)F)c3)C(=O)O[C@]12C`, the MIC with Streptococcus pneumoniae [1] is 2 µg/mL (≈ 2.28 µM); with Streptococcus agalactiae [2] it was 8 µg/mL (≈ 9.13 µM); in data set [3] it was 0.25 µg/mL (≈ 0.285 µM); in the data set with Streptococcus pneumoniae [4] it was 2 µg/mL (≈ 2.28 µM); in the data set on Moraxella catarrhalis [5], 1 µg/mL (≈ 1.14 µM); with Moraxella catarrhalis [6], 4 µg/mL (≈ 4.57 µM). In addition, the MIC in the data set with Haemophilus influenzae [7] is 64 µg/mL (≈ 73.1 µM); in the data set on Streptococcus agalactiae [8], below 0.03 µg/mL; in [9] it was 0.5 µg/mL (≈ 0.571 µM); with Moraxella catarrhalis [10] it was 1 µg/mL (≈ 1.14 µM); in [11], 0.5 µg/mL (≈ 0.571 µM); in the data set with Haemophilus influenzae [12] it was 64 µg/mL (≈ 73.1 µM). Further, the MIC is 2 µg/mL (≈ 2.28 µM) with Streptococcus pneumoniae [13]; 0.5 µg/mL (≈ 0.571 µM) in data set [14]; 1 µg/mL (≈ 1.14 µM) in data set [15]; 0.5 µg/mL (≈ 0.571 µM) in data set [16]; below 0.03 µg/mL in the data set with Streptococcus pyogenes. Further, the CC50 at 48 h in data set [17] came out at 12.4 µM.

Consider `CC[C@H]1OC(=O)[C@@](C)(F)C(=O)[C@H](C)[C@@H](O[C@@H]2O[C@H](C)C[C@H](N(C)C)[C@H]2O)[C@](C)(OC)C[C@@H](C)C(=O)[C@H](C)[C@H]2N(CCCOC(=O)Nc3ccc(SC)cc3)C(=O)O[C@]12C`, for which the MIC in the data set on Streptococcus pneumoniae [1] came to 0.25 µg/mL (≈ 0.293 µM); with Streptococcus agalactiae [2] it was 16 µg/mL (≈ 18.7 µM); in data set [3], 0.125 µg/mL (≈ 0.146 µM); with Streptococcus pneumoniae [4] it was 1 µg/mL (≈ 1.17 µM); in the data set with Moraxella catarrhalis [5] it was 0.5 µg/mL (≈ 0.585 µM); in the data set on Moraxella catarrhalis [6], 0.125 µg/mL (≈ 0.146 µM). Further, the MIC in the data set with Haemophilus influenzae [7] came to 8 µg/mL (≈ 9.37 µM); with Streptococcus agalactiae [8], 0.03 µg/mL (≈ 0.0351 µM); in data set [9], 0.125 µg/mL (≈ 0.146 µM); with Moraxella catarrhalis [10], 0.5 µg/mL (≈ 0.585 µM); in [11] it was 0.125 µg/mL (≈ 0.146 µM); in the data set with Haemophilus influenzae [12], 16 µg/mL (≈ 18.7 µM). Besides, the MIC with Streptococcus pneumoniae [13] is 0.25 µg/mL (≈ 0.293 µM); in data set [14], 0.125 µg/mL (≈ 0.146 µM); in data set [15], 0.25 µg/mL (≈ 0.293 µM); in data set [16] it was 0.125 µg/mL (≈ 0.146 µM); in the data set with Streptococcus pyogenes, below 0.03 µg/mL. In data set [17], the CC50 at 48 h was determined as 76.1 µM.

As usually defined, the CC50 is the concentration that lowers cell viability or growth by half.

The values are drawn from ChEMBL document CHEMBL5543097, “Synthesis and structure-activity relationships of novel 14-membered 2-fluoro ketolides with structural modification at the C11 position” (Eur J Med Chem, 2024).
